“And” between values parts separate entries of the source, which are not always exact repeats. Equal entries are not always repeated. Where two headings read alike, the source gives them in different places.
How the values were obtained:
Format in all cases: in vivo
lettuce (Green Wave) [1] = assay: Example 16: Growth-promoting effect (lettuce, drenching treatment); conditions: for Increase/decrease of above-ground part / Increase/decrease of underground part: non-addition group = 100%; for Weight of above-ground part FW / Weight of underground part FW: 25° C., 14 days
Experimental: Lettuce (Green Wave) was sown on a cell tray filled with seedling culture soil (manufactured by Nihon Hiryo Co., Ltd.; “Naebijin N100”). After the two leaf stage, the lettuce was transplanted to each pot (soil volume, 100 ml). […]

Phythophthora infestans = conditions: 14 days
lettuce (Green Wave) [2] = assay: Example 3: High-temperature stress Petri dish test (lettuce), blending with β-carotene; conditions: 0.1 ppm
tomato (Momotaro Home) = assay: Example 24: Dry stress Petri dish test (tomato); conditions: Dry stress (20 g/L polyethylene glycol); for Root length, Average: 28° C., 12 days; for Root length, Increase rate: non-addition group = 100.0
From the text: For each group, three measurement results were obtained (N=3).

lettuce (Green Wave) [3] = assay: Example 23: Metal stress Petri dish test (lettuce); conditions: Metal stress (AlCl3 100 μM), 1 ppm
Cabbage (Okina) seeds = assay: Example 6: High-temperature stress Petri dish test (cabbage seeds); conditions: for Germination rate, Increase rate / Root length, Increase rate: non-addition group = 100.0; for Root length, Average: after high-temperature treatment; for Germination rate, Average: seeds 52° C. hot water 25 minutes, 23° C. 4 days
Experimental: Cabbage (Okina, Takii & Co., Ltd.) seeds were soaked in hot water at 52° C. for 25 minutes to perform high-temperature treatment. […] A group similarly soaked in distilled water was provided as a non-addition group. After the soaking treatment, the seeds were dried in air, and then 20 seeds were sown on each of shallow Petri dishes in which qualitative filter paper was placed. To the filter paper in each Petri dish, 3 mL of distilled water was uniformly added dropwise. […] For each group, three measurement results were obtained for the germination rate (N=3), and 15 measurement results were obtained for the root length (N=15).

[4] = system: Zoysia tenuifolia (Korean velvet grass); assay: Example 12: Low-temperature stress field test (lawn grass); conditions: for Number of sprouts, Average: three months after final spraying, low temperature; for Number of sprouts, Increase rate: non-addition group = 100.0
Experimental: In the research institute, a wettable powder formulation containing 1% hesperidin having the formulation composition shown in Table 11 was applied a total of four times by foliar spraying at a ratio of 0.15 to 0.75 g/m^2 (amount of water sprayed, 250 ml) every other week from late October to late December in 2017. Three months after the final spraying, the lawn grass was collected using a hole cutter, and the number of sprouts was measured. For each group, three measurement results were obtained (N=3).
In the period from November 2017 to March 2018, the highest temperature was 16.6° C.; the lowest temperature was −3.7° C.; and the average temperature was 6.0° C. Since the optimum growth temperature of Zoysia tenuifolia (Korean velvet grass) is 24 to 35° C., and it enters a period of dormancy at 10° C. or less, the plant was judged to have been affected by the low-temperature stress.

Sphaerotheca cucurbitae = assay: Example 20: Control effect against cucumber powdery mildew; conditions: 14 days
Experimental: […] cucumber (Hanjirofushinari, Takii & Co., Ltd.) in the two leaf stage, and foliar spraying of 15 ml each of dilutions of hesperidin prepared at final concentrations of 10 to 1000 ppm (using 0.01% Tween 20 solution as the solvent) was carried out. After air-drying, foliar spraying of cucumber powdery mildew spores (1×10^4 spores/ml, using 0.01% Tween 20 solution as the solvent) was carried out. After air-drying, cultivation was carried out in a greenhouse for 14 days, and then the control effect was evaluated.
Preventive value=100−(damage in the addition group/damage in the non-addition group)×100 (Equation 3)

Cabbage (Okina) [5] = assay: Example 10: High-temperature stress pot test (cabbage); conditions: for Fresh weight of above-ground part, Increase rate / Fresh weight of underground part, Increase rate: non-addition group = 100.0; for Fresh weight of above-ground part, Average / Fresh weight of underground part, Average: greenhouse 35° C., 30 days
Experimental: Cabbage (Okina, Takii & Co., Ltd.) was sown on a cell tray filled with seedling culture soil (manufactured by Nihon Hiryo Co., Ltd.; “Naebijin N100”). […] Cultivation was carried out in a greenhouse (average daytime temperature, 35° C.) for 30 days, and then the fresh weight of the above-ground part and the fresh weight of the underground part were evaluated. For each group, 15 to 20 measurement results were obtained (N=15 to 20).

Cabbage (Okina) [6] = assay: Example 18: Growth-promoting effect (cabbage, seed dressing); conditions: for Increase/decrease of above-ground part / Increase/decrease of underground part: non-addition group = 100%; for Weight of above-ground part FW / Weight of underground part FW: 25° C., 28 days
Experimental: For cabbage (Okina, Takii & Co., Ltd.), seed dressing was carried out by application, at 5% seed weight, of a dilution of hesperidin prepared at a final concentration of 1 to 100 ppm (using water as the solvent). The dressed cabbage seeds were sown on a cell tray filled with seedling culture soil (manufactured by Nihon Hiryo Co., Ltd.; “Naebijin N100”). […]

lettuce (Green Wave) [7] = assay: Example 1: High-temperature stress Petri dish test (lettuce), comparison with other natural products; conditions: 0.1 ppm in agar medium

SMILES: COc1ccc([C@@H]2CC(=O)c3c(O)cc(O[C@@H]4O[C@H](CO[C@@H]5O[C@@H](C)[C@H](O)[C@@H](O)[C@H]5O)[C@@H](O)[C@H](O)[C@H]4O)cc3O2)cc1O [Hesperidin]
- Increase/decrease of above-ground part (lettuce (Green Wave) [1]; 1 ppm): 103%
- Increase/decrease of underground part (lettuce (Green Wave) [1]; 1 ppm): 115%
- Increase/decrease of above-ground part (lettuce (Green Wave) [1]; 3 ppm): 126%
- Increase/decrease of underground part (lettuce (Green Wave) [1]; 3 ppm): 119%
- Increase/decrease of above-ground part (lettuce (Green Wave) [1]; 100 ppm): 118%
- Increase/decrease of underground part (lettuce (Green Wave) [1]; 100 ppm): 123%
- Weight of above-ground part FW (lettuce (Green Wave) [1]; drenching treatment 1 ppm): 13.26 mg/individual
- Weight of underground part FW (lettuce (Green Wave) [1]; drenching treatment 1 ppm): 7.99 mg/individual
- Weight of above-ground part FW (lettuce (Green Wave) [1]; drenching treatment 3 ppm): 16.17 mg/individual
- Weight of underground part FW (lettuce (Green Wave) [1]; drenching treatment 3 ppm): 8.29 mg/individual
- Weight of above-ground part FW (lettuce (Green Wave) [1]; drenching treatment 100 ppm): 15.12 mg/individual
- Weight of underground part FW (lettuce (Green Wave) [1]; drenching treatment 100 ppm): 8.57 mg/individual
- Preventive value (Phythophthora infestans; 10 ppm foliar spraying on tomato (Regina)): 37.4
- Preventive value (Phythophthora infestans; 30 ppm foliar spraying on tomato (Regina)): 86.0
- Preventive value (Phythophthora infestans; 100 ppm foliar spraying on tomato (Regina)): 92 and 92.1
- Root length (lettuce (Green Wave) [2]; High-temperature treatment (42° C., 1.5 hours)): 15.0 mm
- Root length (lettuce (Green Wave) [2]; Normal cultivation): 22.2 mm
- Root length, Average (tomato (Momotaro Home); 0.1 ppm): 49.89 mm
- Root length, Increase rate (tomato (Momotaro Home); 0.1 ppm): 214.2%
- Root length, Average (tomato (Momotaro Home); 1 ppm): 55.81 mm
- Root length, Increase rate (tomato (Momotaro Home); 1 ppm): 239.6%
- Root length, Average (lettuce (Green Wave) [3]): 22.87 mm
- Root length, Increase rate (lettuce (Green Wave) [3]; non-addition group = 100.0): 137.6%
- Germination rate, Increase rate (Cabbage (Okina) seeds; 100 ppm): 127.1%
- Root length, Increase rate (Cabbage (Okina) seeds; 100 ppm): 189.7%
- Germination rate, Increase rate (Cabbage (Okina) seeds; 1000 ppm): 150.3%
- Root length, Increase rate (Cabbage (Okina) seeds; 1000 ppm): 224.6%
- Root length, Average (Cabbage (Okina) seeds; 100 ppm): 43.6 mm
- Root length, Average (Cabbage (Okina) seeds; 1000 ppm): 51.6 mm
- Germination rate, Average (Cabbage (Okina) seeds; then soaked at 100 ppm): 66.2%
- Germination rate, Average (Cabbage (Okina) seeds; then soaked at 1000 ppm): 78.3%
- Number of sprouts, Average ([4]; 0.15 g/m^2, foliar spraying four times as wettable powder formulation containing 1% hesperidin): 111.33 number
- Number of sprouts, Increase rate ([4]; 0.15 g/m^2): 189.8%
- Number of sprouts, Average ([4]; 0.75 g/m^2, foliar spraying four times as wettable powder formulation containing 1% hesperidin): 112.00 number
- Number of sprouts, Increase rate ([4]; 0.75 g/m^2): 190.9%
- Preventive value (Sphaerotheca cucurbitae; 10 ppm foliar spraying on cucumber): 5.0
- Preventive value (Sphaerotheca cucurbitae; 100 ppm foliar spraying on cucumber): 50.0
- Preventive value (Sphaerotheca cucurbitae; 1,000 ppm foliar spraying on cucumber): 68
- Fresh weight of above-ground part, Increase rate (Cabbage (Okina) [5]; 100 ppm): 118.0%
- Fresh weight of underground part, Increase rate (Cabbage (Okina) [5]; 100 ppm): 130.6%
- Fresh weight of above-ground part, Increase rate (Cabbage (Okina) [5]; 1000 ppm): 97.1%
- Fresh weight of underground part, Increase rate (Cabbage (Okina) [5]; 1000 ppm): 103.2%
- Fresh weight of above-ground part, Average (Cabbage (Okina) [5]; drenching 100 ppm): 0.87 g
- Fresh weight of underground part, Average (Cabbage (Okina) [5]; drenching 100 ppm): 0.32 g
- Fresh weight of above-ground part, Average (Cabbage (Okina) [5]; drenching 1000 ppm): 0.72 g
- Fresh weight of underground part, Average (Cabbage (Okina) [5]; drenching 1000 ppm): 0.25 g
- Increase/decrease of above-ground part (Cabbage (Okina) [6]; 1 ppm): 106%
- Increase/decrease of underground part (Cabbage (Okina) [6]; 1 ppm): 108%
- Increase/decrease of above-ground part (Cabbage (Okina) [6]; 10 ppm): 112%
- Increase/decrease of underground part (Cabbage (Okina) [6]; 10 ppm): 106%
- Increase/decrease of above-ground part (Cabbage (Okina) [6]; 100 ppm): 106%
- Increase/decrease of underground part (Cabbage (Okina) [6]; 100 ppm): 101%
- Weight of above-ground part FW (Cabbage (Okina) [6]; seed dressing 1 ppm): 54.0 mg/individual
- Weight of underground part FW (Cabbage (Okina) [6]; seed dressing 1 ppm): 15.6 mg/individual
- Weight of above-ground part FW (Cabbage (Okina) [6]; seed dressing 10 ppm): 57.2 mg/individual
- Weight of underground part FW (Cabbage (Okina) [6]; seed dressing 10 ppm): 15.3 mg/individual
- Weight of above-ground part FW (Cabbage (Okina) [6]; seed dressing 100 ppm): 53.9 mg/individual
- Weight of underground part FW (Cabbage (Okina) [6]; seed dressing 100 ppm): 14.6 mg/individual
- optimum concentration of hesperidin to be added for cabbage (Cabbage (Okina) [6]; seed dressing, growth promotion): lower than 100 ppm
- Root length (lettuce (Green Wave) [7]; High-temperature treatment (42° C., 1.5 hours), then 23° C. 2 days): 24.0 mm
- Root length (lettuce (Green Wave) [7]; Normal cultivation): 25.1 mm

— patent US20220095617A1, “PLANT GROWTH REGULATING AGENT” (IDEMITSU KOSAN CO.,LTD., priority 2019, published 2022)
